Source: PubChem BioAssay (NCI)
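These data come from cells grown in 96-well plates and exposed to compound for 48 hours at five concentrations. Abbreviation: GI50, concentration required for 50% inhibition of growth. Definition used: TGI = concentration required for complete inhibition of growth.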

Tests used:
Assay in all cases: DTP human tumour cell line panel, 48 h
[1] = system: 786-0 renal
[2] = system: A498 renal
[3] = system: A549 NSCLC
[4] = system: ACHN renal
[5] = system: BT-549 breast
[6] = system: CAKI-1 renal
[7] = system: CCRF-CEM leukemia
[8] = system: COLO 205 colon
[9] = system: DU-145 prostate
[10] = system: HCC-2998 colon
[11] = system: HCT-15 colon
[12] = system: HL-60(TB) leukemia
[13] = system: HOP-62 NSCLC
[14] = system: HOP-92 NSCLC
[15] = system: HS 578T breast
[16] = system: HT29 colon
[17] = system: IGROV1 ovarian
[18] = system: KM12 colon
[19] = system: LOX IMVI melanoma
[20] = system: MALME-3M melanoma
[21] = system: MDA-MB-231 breast
[22] = system: MDA-MB-435
[23] = system: NCI-H226 lung
[24] = system: NCI-H23 lung
[25] = system: NCI-H460 lung
[26] = system: NCI-H522 lung
[27] = system: NCI/ADR-RES ovarian
[28] = system: OVCAR-3 ovarian
[29] = system: OVCAR-5 ovarian
[30] = system: OVCAR-8 ovarian
[31] = system: PC-3 prostate
[32] = system: RPMI-8226 leukemia
[33] = system: RXF 393 renal
[34] = system: SF-268 CNS
[35] = system: SF-295 CNS
[36] = system: SF-539 CNS
[37] = system: SK-MEL-2 melanoma
[38] = system: SK-MEL-28 melanoma
[39] = system: SK-MEL-5 melanoma
[40] = system: SK-OV-3 ovarian
[41] = system: SN12C renal
[42] = system: SNB-19 CNS
[43] = system: SNB-75 CNS
[44] = system: SR leukemia
[45] = system: SW-620 colon
[46] = system: TK-10 renal
[47] = system: UACC-257 melanoma
[48] = system: UACC-62 melanoma
[49] = system: UO-31 renal
[50] = system: K-562 leukemia
[51] = system: M14 melanoma

Nc1ccc(-c2nc3ccc(Cc4ccc5nc(-c6ccc(N)cc6)[nH]c5c4)cc3[nH]2)cc1
GI50 [1]: 4.52 µM | TGI [1]: 31.6 µM | GI50 [2]: 0.855 µM | TGI [2]: 21.4 µM | GI50 [3]: 20.8 µM | TGI [3]: 57.7 µM | GI50 [4]: 17.9 µM | TGI [4]: 37.5 µM | GI50 [5]: 9.86 µM | TGI [5]: 67.2 µM | GI50 [6]: 45.6 µM | TGI [6]: > 100 µM | GI50 [7]: 2.12 µM | TGI [7]: 6.7 µM | GI50 [8]: 1.65 µM | TGI [8]: 3.2 µM | GI50 [9]: 11.1 µM | TGI [9]: 24.2 µM | GI50 [10]: 2.84 µM | TGI [10]: 12.1 µM | GI50 [11]: 14.8 µM | TGI [11]: 47.9 µM | GI50 [12]: 10.4 µM | TGI [12]: 36.9 µM | GI50 [13]: 6.53 µM | TGI [13]: 35 µM | GI50 [14]: 16.5 µM | TGI [14]: 39 µM | GI50 [15]: 13 µM | TGI [15]: 39.5 µM | GI50 [16]: 1.89 µM | TGI [16]: 4.1 µM | GI50 [17]: 16.9 µM | TGI [17]: 39.8 µM | GI50 [18]: 1.37 µM | TGI [18]: 3.05 µM | GI50 [19]: 2.28 µM | TGI [19]: 5.32 µM | GI50 [20]: 2.04 µM | TGI [20]: 4.53 µM | GI50 [21]: 2.14 µM | TGI [21]: 5.18 µM | GI50 [22]: 1.45 µM | TGI [22]: 3.67 µM | GI50 [23]: 8.06 µM | TGI [23]: 36.9 µM | GI50 [24]: 3.83 µM | TGI [24]: 22.3 µM | GI50 [25]: 14.4 µM | TGI [25]: 37.1 µM | GI50 [26]: 1.97 µM | TGI [26]: 4.87 µM | GI50 [27]: > 100 µM | TGI [27]: > 100 µM | GI50 [28]: 1.76 µM | TGI [28]: 3.31 µM | GI50 [29]: 12 µM | TGI [29]: 30 µM | GI50 [30]: 2.48 µM | TGI [30]: 6.58 µM | GI50 [31]: 4.25 µM | TGI [31]: 20.1 µM | GI50 [32]: 25.7 µM | TGI [32]: > 100 µM | GI50 [33]: 15.7 µM | TGI [33]: 42.9 µM | GI50 [34]: 4.23 µM | TGI [34]: 26.9 µM | GI50 [35]: 12.8 µM | TGI [35]: 32.4 µM | GI50 [36]: 1.91 µM | TGI [36]: 3.91 µM | GI50 [37]: 12.6 µM | TGI [37]: 35.4 µM | GI50 [38]: 1.93 µM | TGI [38]: 4.27 µM | GI50 [39]: 5.22 µM | TGI [39]: 34.1 µM | GI50 [40]: 18.9 µM | TGI [40]: 40.6 µM | GI50 [41]: 8.75 µM | TGI [41]: 29 µM | GI50 [42]: 3.24 µM | TGI [42]: 18.2 µM | GI50 [43]: 12.3 µM | TGI [43]: 28.9 µM | GI50 [44]: 1.48 µM | TGI [44]: > 100 µM | GI50 [45]: 1.8 µM | TGI [45]: 3.46 µM | GI50 [46]: 24.4 µM | TGI [46]: 43.3 µM | GI50 [47]: 20.6 µM | TGI [47]: 45.7 µM | GI50 [48]: 3.59 µM | TGI [48]: 17.8 µM | GI50 [49]: 45.4 µM | TGI [49]: > 100 µM

C1CCC([PH+](C2CCCCC2)C2CCCCC2[PH+](C2CCCCC2)C2CCCCC2)CC1.O=C(C1[CH-]CCCC1)C1CCCC[N-]1.[Au] (centres undefined)
GI50 [1]: 0.413 µM | TGI [1]: 1.85 µM | GI50 [2]: 0.0757 µM | TGI [2]: 0.584 µM | GI50 [4]: 0.92 µM | TGI [4]: 2.12 µM | GI50 [5]: 0.261 µM | TGI [5]: 1.5 µM | GI50 [6]: 1.07 µM | TGI [6]: 2.72 µM | GI50 [9]: 0.298 µM | TGI [9]: 1.61 µM | GI50 [12]: 0.249 µM | TGI [12]: 0.731 µM | GI50 [13]: 0.323 µM | TGI [13]: 2.96 µM | GI50 [14]: 0.22 µM | TGI [14]: 0.89 µM | GI50 [15]: 0.225 µM | TGI [15]: 1.56 µM | GI50 [50]: 0.194 µM | TGI [50]: > 100 µM | GI50 [51]: 0.26 µM | TGI [51]: 1.4 µM | GI50 [21]: 0.223 µM | TGI [21]: 0.713 µM | GI50 [22]: 0.229 µM | TGI [22]: 0.704 µM | GI50 [23]: 0.455 µM | TGI [23]: 2.43 µM | GI50 [27]: 1.8 µM | TGI [27]: > 100 µM | GI50 [28]: 0.272 µM | TGI [28]: 1.19 µM | GI50 [29]: 0.343 µM | TGI [29]: 1.53 µM | GI50 [30]: 0.245 µM | TGI [30]: > 100 µM | GI50 [31]: 0.218 µM | TGI [31]: 3.8 µM | GI50 [33]: 0.317 µM | TGI [33]: 1.38 µM | GI50 [34]: 0.343 µM | TGI [34]: 1.91 µM | GI50 [35]: 0.262 µM | TGI [35]: 1.09 µM | GI50 [36]: 0.31 µM | TGI [36]: 1.28 µM | GI50 [37]: 0.379 µM | TGI [37]: 2.02 µM | GI50 [39]: 0.252 µM | TGI [39]: 0.661 µM | GI50 [40]: 0.33 µM | TGI [40]: 1.4 µM | GI50 [41]: 0.262 µM | TGI [41]: 2.81 µM | GI50 [43]: 0.179 µM | TGI [43]: 1.05 µM | GI50 [44]: 0.329 µM | TGI [44]: > 100 µM | GI50 [47]: 0.337 µM | TGI [47]: 3.36 µM | GI50 [48]: 0.226 µM | TGI [48]: 0.835 µM | GI50 [49]: 1.45 µM | TGI [49]: 2.76 µM
